These results are taken from patent publication US8569327B2, “Phenanthroindolizidine derivative and NFκB inhibitor containing same as active ingredient” (Kabushiki Kaisha Yakult Honsha, priority 2008, dated 2013).

Series [1] concerns human colon cancer HT-29 cells. As to the kind of experiment: Inhibitory action on the proliferation of HT-29 cells. The class given is cell-based. The following applies: 96 hours, TetraColor ONE; for IC50: Homo sapiens, HT-29. The protocol:
(§1) The action of the phenanthroindolizidine alkaloid compound of the present invention on the proliferation of human colon cancer SW480 cells, HT-29 cells, and human non-small cell lung cancer A549 cells was studied. The SW480 cells were suspended in a 10% FBS/RPMI1640 and then seeded in a 96-well microplate, followed by culturing in 5% CO2 at 37° C. (2000 cells/well). The A549 cells and the HT-29 cells were each suspended in a DMEM medium containing 10% FBS, 100 U/mL penicillin, and 100 μg/mL streptomycin (10% FBS/DMEM) and a DMEM F-12 HAM medium containing 10% FBS, 100 U/mL penicillin, and 100 μg/mL streptomycin (10% FBS/DMEM F12 HAM), and then seeded in 96-well microplates, followed by culturing in 5% CO2 at 37° C. (1000 cells/well). After an overnight culture, the compound of the present invention was added, followed by further culturing for 48 hours (SW480 cells) and 96 hours (A549 cells and HT-29 cells). After culturing, the number of viable cells was counted using TetraColor ONE (Seikagaku Corporation) in accordance with the attached operating procedure. The results were expressed as the concentration of a test compound needed for 50% inhibition of the proliferation of the cells (IC50).

Series [2] concerns mice transplanted with mouse fibrosarcoma Meth A cells. Briefly: Animal toxicity test. The class given is in vivo. The following applies: intravenous days 1, 5, 9, observed three weeks. On the procedure: Also, the toxicity of known phenanthroindolizidine alkaloid compounds, namely (12aS,13S)-6,7-dimethoxy-9,10,11,12,12a,13-hexahydro-9a-aza-cyclopenta[b]triphenylene-3,13-diol (known compound 1; refer to WO01/023384) and (12aS,13S)-3,6,7-trimethoxy-9,10,11,12,12a,13-hexahydro-9a-aza-cyclopenta[b]triphenylene-13-ol (known compound 2; refer to Planta Med., 2002, 68: 186-188), was simultaneously studied. To a control group, a physiological saline solution, a solvent, was administered. As a result, as shown in the following Tables 35 and 36, all the mice survived in a group administered with the compound of the present invention.

Series [3] concerns human colon cancer SW480 cells. Briefly: Inhibitory action on the proliferation of SW480 cells. The class given is cell-based. The following applies: 48 hours, TetraColor ONE; for IC50: Homo sapiens, SW480. The protocol: as §1
A further series deals with SV40 promoter. Briefly: SV40 promoter activity, luciferase assay in SW480/SV40-Luc cells. The class given is cell-based, human. The following applies: for IC50: Homo sapiens, SW480, read-out: SV40 promoter inhibitory activity IC50; for SV40 promoter inhibitory activity IC50: SW480/SV40-Luc cells, luciferase. From the text:
(§2) The action of the phenanthroindolizidine alkaloid compound of the present invention on the NFκB activity was studied using a luciferase assay. Human colon cancer SW480 cells were transfected with pNFκB-Luc Plasmid (Stratagene), which is a reporter vector in which a five-time tandem repeat of the NFκB responsive element (NRE) is integrated into the upstream of the luciferase gene, using Lipofectamine 2000 (Invitrogen Corporation) in accordance with the attached operating procedure. Subsequently, the cells were cultured in an RPMI1640 medium containing 10% FBS, 100 U/mL penicillin, 100 μg/mL streptomycin, and 0.5 mg/mL G418 to produce SW480 cells having the luciferase gene, the expression of which is regulated by NRE, stably introduced therein (SW480/NRE-Luc cells). Likewise, SW480 cells were transfected with pGL3-Control Vector (Promega Corporation), which is a reporter vector in which the SV40 promoter is integrated into the upstream of the luciferase gene, to produce SW480 cells having the luciferase gene, the expression of which is regulated by the SV40 promoter, stably introduced therein (SW480/SV40-Luc cells). The SW480/NRE-Luc cells or the SW480/SV40-Luc cells were suspended in an RPMI1640 medium containing 10% FBS, 100 U/mL penicillin, and 100 μg/mL streptomycin (10% FBS/RPMI1640), and then seeded in a 96-well microplate, followed by culturing under conditions of 5% CO2 and at 37° C. (5000 cells/well). After an overnight culture, the compound of the present invention was added, followed by culturing for one hour. Further, 50 ng/mL TNFα (Sigma-Aldrich Corporation) was added, followed by culturing for four hours. Subsequently, a Steady-Glo Luciferase Assay reagent (Promega Corporation) was added, and the luminescent intensity was detected by SpectraMax M5e (Molecular Devices, Inc.) to measure the intracellular luciferase activity. It is to be noted that the action of the compound of the present invention on the NFκB activity or the SV40 promoter activity was shown as IC50 values (the concentration of a test compound needed for 50% inhibition of the induction of the luciferase expression).

Series [4] relates to human non-small cell lung cancer A549 cells. As to the kind of experiment: Inhibitory action on the proliferation of A549 cells. The class given is cell-based. The following applies: 96 hours, TetraColor ONE; for IC50: Homo sapiens, A549. On the procedure:
as §1

The subject of the next series is NFκB. As to the kind of experiment: Inhibitory action on the NFκB activity, luciferase assay in SW480/NRE-Luc cells. The class given is cell-based, human. The following applies: for IC50: Homo sapiens, SW480, read-out: NFκB inhibitory activity IC50; for NFκB inhibitory activity IC50: SW480/NRE-Luc cells, compound 1 h then 50 ng/mL TNFα 4 h, luciferase.
Text: as §2

As usually defined, the IC50 is the concentration that gives 50% inhibition. As for `COc1cc2c3c(c4ccccc4c2cc1OC)[C@@H](O)[C@H]1CCCN1C3.Cl` [Compound 2, (12aR,13R)-6,7-dimethoxy-9,10,11,12,12a,13-hexahydro-9a-aza-cyclopenta[b]triphenylene-13-ol hydrochloride], the half-maximal inhibitory concentration (IC50) in series [1] was 204 ng/mL; in series [3], 1020 ng/mL; in the series on SV40 promoter, above 10000 ng/mL; in series [4] it was 211 ng/mL; with NFκB it was 387 ng/mL. The Mortality rate in series [2] (total dose 25 mg/kg) and in series [2] (total dose 50 mg/kg) was 0/5 in each case.

Consider `CCc1ccc2c3c(c4cc(OC)c(OC)cc4c2c1)CN1CCC[C@@H]1[C@@H]3O.Cl` [Compound 4, (12aR,13R)-3-ethyl-6,7-dimethoxy-9,10,11,12,12a,13-hexahydro-9a-aza-cyclopenta[b]triphenylene-13-ol hydrochloride], for which the IC50 in series [1] was 121 ng/mL; in series [3], 513 ng/mL; with SV40 promoter it was above 10000 ng/mL; in series [4], 101 ng/mL; with NFκB it was 201 ng/mL. Also, the Mortality rate in series [2] (total dose 25 mg/kg) and in series [2] (total dose 50 mg/kg) was 0/5 in each case.

As for `COc1cc2c3c(c4ccc(F)cc4c2cc1OC)[C@@H](O)[C@H]1CCCN1C3.Cl` [Compound 6, (12aR,13R)-3-fluoro-6,7-dimethoxy-9,10,11,12,12a,13-hexahydro-9a-aza-cyclopenta[b]triphenylene-13-ol hydrochloride], the IC50 in series [1] was 38.8 ng/mL; in series [3], 567 ng/mL; in the series on SV40 promoter it was above 10000 ng/mL; in series [4], 34.1 ng/mL; in the series with NFκB, 166 ng/mL. For the same compound, the Mortality rate in series [2] (total dose 25 mg/kg) and in series [2] (total dose 50 mg/kg) was 0/5 throughout.

As for `COc1cc2c3c(c4ccc(OC(C)=O)cc4c2cc1OC)[C@H](O)[C@@H]1CCCN1C3.Cl` [Compound 7, acetic acid(12aS,13S)-13-hydroxy-6,7-dimethoxy-9,10,11,12,12a,13-hexahydro-9a-aza-cyclopenta[b]triphenylene-3-yl ester hydrochloride], the “HT-29 proliferation inhibitory action IC50” value in series [1] came out at 0.080 ng/mL. Besides, the Mortality rate in series [2] (total dose 25 mg/kg) and in series [2] (total dose 50 mg/kg) was 0/5 each time. The “SW480 proliferation inhibitory action IC50” value in series [3] stood at 0.41 ng/mL. In addition, the “SV40 promoter inhibitory activity IC50” value with SV40 promoter was above 100 ng/mL. Besides, the “A549 proliferation inhibitory action IC50” value in series [4] was determined as 0.63 ng/mL. For the same compound, in the series with NFκB, the “NFκB inhibitory activity IC50” value came out at 0.25 ng/mL.

Regarding `COc1cc2c3c(c4ccc(OC(=O)c5ccco5)cc4c2cc1OC)C[C@@H]1CCCN1C3.CS(=O)(=O)O` [Compound 52, furan-2-carboxylic acid(S)-6,7-dimethoxy-9,10,11,12,12a,13-hexahydro-9a-aza-cyclopenta[b]triphenylene-3-yl ester methanesulfonate], the “HT-29 proliferation inhibitory action IC50” value in series [1] worked out at 2.0 ng/mL. Also, the “SW480 proliferation inhibitory action IC50” value in series [3] is recorded as 0.51 ng/mL. Moreover, in the series on SV40 promoter, the “SV40 promoter inhibitory activity IC50” value was above 1000 ng/mL. In addition, in series [4], the “A549 proliferation inhibitory action IC50” value amounted to 1.3 ng/mL. Moreover, the “NFκB inhibitory activity IC50” value in the series on NFκB was 0.61 ng/mL.

With `COc1cc2c3c(c4ccccc4c2cc1OC)C[C@@H]1CCCN1C3.CS(=O)(=O)O` [Compound 53, (S)-6,7-dimethoxy-9,10,11,12,12a,13-hexahydro-9a-aza-cyclopenta[b]triphenylene methanesulfonate], the IC50 in series [1] was 58.5 ng/mL; in series [3] it was 32.9 ng/mL; in the series on SV40 promoter, above 10000 ng/mL; in series [4], 28.9 ng/mL; in the series on NFκB, 19.1 ng/mL.

Turning to `COc1cc2c3c(c4ccc(N)cc4c2cc1OC)C[C@@H]1CCCN1C3.CS(=O)(=O)O` [Compound 54, (S)-3-amino-6,7-dimethoxy-9,10,11,12,12a,13-hexahydro-9a-aza-cyclopenta[b]triphenylene methanesulfonate], the IC50 in series [1] is 4.15 ng/mL; in series [3], 3.9 ng/mL; with SV40 promoter it was above 10 ng/mL; in series [4], 2.8 ng/mL; in the series with NFκB, 2 ng/mL.

Consider `COc1cc2c3c(c4ccc(NC(=O)OCC(C)C)cc4c2cc1OC)C[C@@H]1CCCN1C3.CS(=O)(=O)O` [Compound 55, ((S)-6,7-dimethoxy-9,10,11,12,12a,13-hexahydro-9a-aza-cyclopenta[b]triphenylene-3-yl)-carbamic acid isobutyl ester methanesulfonate], for which the IC50 was 46 ng/mL in series [1]; 0.76 ng/mL in series [3]; above 10000 ng/mL in the series with SV40 promoter; 33.7 ng/mL in series [4]; 0.5 ng/mL in the series with NFκB.

Take `COc1cc2c3c(c4ccc(N5CCCC5)cc4c2cc1OC)C[C@@H]1CCCN1C3.CS(=O)(=O)O` [Compound 57, (S)-6,7-dimethoxy-3-pyrrolidine-9,10,11,12,12a,13-hexahydro-9a-aza-cyclopenta[b]triphenylene methanesulfonate]: the “HT-29 proliferation inhibitory action IC50” value in series [1] is recorded as 74.1 ng/mL. Moreover, the “SW480 proliferation inhibitory action IC50” value in series [3] is 1.0 ng/mL. Moreover, in the series with SV40 promoter, the “SV40 promoter inhibitory activity IC50” value is above 10000 ng/mL. In series [4], the “A549 proliferation inhibitory action IC50” value is listed as 61.1 ng/mL. The “NFκB inhibitory activity IC50” value with NFκB came out at 0.67 ng/mL.

Regarding `COc1ccc2c3c(c4cc(OC)c(OC)cc4c2c1)CN1CCC[C@H]1[C@H]3O` [Known Compound 2, (12aS,13S)-3,6,7-trimethoxy-9,10,11,12,12a,13-hexahydro-9a-aza-cyclopenta[b]triphenylene-13-ol, reference compound], the Mortality rate is 2/5 in series [2] (total dose 25 mg/kg, 25 mg/kg); “some of the mice also died” in series [2] (total dose 25 mg/kg, listed as known compound 2, 25 mg/kg); 5/5 in series [2] (total dose 50 mg/kg, 50 mg/kg); “all the mice died” in series [2] (total dose 50 mg/kg, listed as known compound 2, 50 mg/kg).

Consider `COc1cc2c3c(c4ccc(O)cc4c2cc1OC)[C@H](O)[C@@H]1CCCN1C3` [Known compound 1, (12aS,13S)-6,7-dimethoxy-9,10,11,12,12a,13-hexahydro-9a-aza-cyclopenta[b]triphenylene-3,13-diol, reference compound], for which the Mortality rate is 0/5 in series [2] (total dose 25 mg/kg); 5/5 in series [2] (total dose 50 mg/kg, 50 mg/kg); “all the mice died” in series [2] (total dose 50 mg/kg, listed as known compound 1, 50 mg/kg).

Take “benzhydryl-((S)-6,7-dimethoxy-3-pyrrolidine-9,10,11,12,12a,13-hexahydro-9a-aza-cyclopenta[b]triphenylene-3-yl)-amine methanesulfonate [Compound 58]”: the “HT-29 proliferation inhibitory action IC50” value in series [1] is on record as 52.2 ng/mL. Moreover, in series [3], the “SW480 proliferation inhibitory action IC50” value is listed as 42.3 ng/mL. Moreover, the “SV40 promoter inhibitory activity IC50” value in the series on SV40 promoter is above 10000 ng/mL. Moreover, the “A549 proliferation inhibitory action IC50” value in series [4] is listed as 20.7 ng/mL. The “NFκB inhibitory activity IC50” value with NFκB was found to be 16.2 ng/mL.
